Peptide text beside a SMILES is read from it.
What follows are molecules tested against T1, hSortilin (Homo sapiens, UniProt Q99523) (assay: Neurotensin scintillation proximity assay (displacement of [3H]-neurotensin binding)). Conditions: displacement of 5 nM [3H]-neurotensin from 150 nM 6his-Sortilin; average of at least 2 determinations; read-out: IC50 [3H]Neurotensin SPA.
T1 sequence (Q99523 78-831): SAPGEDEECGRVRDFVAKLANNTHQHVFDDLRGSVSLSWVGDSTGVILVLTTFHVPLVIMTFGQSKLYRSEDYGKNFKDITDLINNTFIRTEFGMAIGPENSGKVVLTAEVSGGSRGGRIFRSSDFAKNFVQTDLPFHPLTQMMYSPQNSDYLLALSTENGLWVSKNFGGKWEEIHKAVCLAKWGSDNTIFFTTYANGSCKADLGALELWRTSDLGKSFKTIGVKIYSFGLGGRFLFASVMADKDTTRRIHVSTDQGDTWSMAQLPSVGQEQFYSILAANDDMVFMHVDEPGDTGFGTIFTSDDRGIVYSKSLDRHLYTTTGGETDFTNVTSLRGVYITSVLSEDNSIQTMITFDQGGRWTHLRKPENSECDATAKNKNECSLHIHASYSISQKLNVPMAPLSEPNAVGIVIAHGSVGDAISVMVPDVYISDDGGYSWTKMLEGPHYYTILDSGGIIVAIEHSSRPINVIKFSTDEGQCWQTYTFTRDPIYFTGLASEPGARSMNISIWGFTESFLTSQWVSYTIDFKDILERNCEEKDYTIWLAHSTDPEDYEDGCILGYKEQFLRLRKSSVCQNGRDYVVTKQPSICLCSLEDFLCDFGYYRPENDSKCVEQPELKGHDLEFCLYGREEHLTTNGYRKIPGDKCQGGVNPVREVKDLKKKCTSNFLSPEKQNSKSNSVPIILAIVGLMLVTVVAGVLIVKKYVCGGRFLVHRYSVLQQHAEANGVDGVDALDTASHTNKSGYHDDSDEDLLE
Protocol: The data of exemplified compounds of the invention tested in a Neurotensin (NTS) scintillation proximity assay (SPA). NTS, which is a 13 amino acid neuropeptide, is a sortilin ligand. The IC50 is a measure of the amount of the compound required to inhibit the binding of NTS to sortilin by 50%.
Compound affinity was determined by measuring the displacement of [^3H]-neurotensin binding to hSortilin in SPA format. Total volume of 40 μl in 50 mM HEPES pH 7.4 assay buffer containing 100 mM NaCl, 2.0 mM CaCl2, 0.1% BSA and 0.1% Tween-20. Compound pre-incubation for 30 minutes at room temperature with 150 nM of 6his-Sortilin before 5 nM [3H]-Neurotensin and Ni chelate imaging beads (Perkin Elmer) were added, after 6 hours the plate was read on a ViewLux with 360 s exposure time. Dose-response evaluation of compounds was performed with 8 concentrations of drugs (covering 3 decades). IC50 values were calculated by nonlinear regression using the sigmoid concentration-response (variable slope) using CDD Vault software. All values reported are average of at least 2 determinations.
Work on `CC[C@H](C)[C@H](NC(=O)[C@H](Cc1ccc(O)cc1)NC(=O)[C@@H]1CCCO1)C(=O)N[C@@H](CCC(F)(F)F)C(=O)O` [Example 1, (S)-5,5,5-Trifluoro-2-((2S,3S)-2-((S)-3-(4-hydroxyphenyl)-2-((S)-tetrahydrofuran-2-carboxamido)propanamido)-3-methylpentanamido)pentanoic acid] yielded an IC50 of 3.17 µM.
`CC[C@H](C)[C@H](NC(=O)[C@H](Cc1ccc(O)cc1)NC(=O)[C@H]1CCCO1)C(=O)N[C@@H](CCC(F)(F)F)C(=O)O` [Example 2, (2S)-5,5,5-trifluoro-2-[(2S,3S)-2-[(S)-3-(4-hydroxyphenyl)-2-{[(2R)-oxolan-2-yl]formamido}propanamido]-3-methylpentanamido] pentoic acid] showed an IC50 of 2.86 µM.
`CC[C@H](C)[C@H](NC(=O)[C@H](Cc1ccc(O)cc1)NC(C)=O)C(=O)N[C@@H](CCC(F)(F)F)C(=O)O` [Example 3, (S)-2-((2S,3S)-2-((S)-2-Acetamido-3-(4-hydroxyphenyl)propanamido)-3-methylpentanamido)-5,5,5-trifluoropentanoic acid] was tested, and the IC50 was 1.11 µM.
`CC[C@H](C)[C@H](NC(=O)[C@H](Cc1ccc(O)cc1)NC(=O)[C@H]1CN(C(C)=O)CCO1)C(=O)N[C@@H](CCC(F)(F)F)C(=O)O` [Example 4, (S)-2-((2S,3S)-2-((S)-2-((R)-4-Acetylmorpholine-2-carboxamido)-3-(4-hydroxyphenyl)propanamido)-3-methylpentanamido)-5,5,5-trifluoropentanoic acid] gave an IC50 of 1.69 µM.
For `CC(C)(C)CC[C@H](NC(=O)[C@H](Cc1ccccn1)NC(=O)[C@H](Cc1ccc(O)cc1)NC(=O)[C@@H]1CCCN1)C(=O)O` [Example 5, (S)-2-((S)-2-((S)-3-(4-Hydroxyphenyl)-2-((S)-pyrrolidine-2-carboxamido)propanamido)-3-(pyridin-2-yl)propanamido)-5,5-dimethylhexanoic acid] (HELM PEPTIDE1{P.Y.[O=C([C@H](Cc1ccccn1)N[*:1])[*:2]].[CC(C)(C)CC[C@H](N[*:1])C(=O)O]}$$$$V2.0), the IC50 was 0.27 µM.
For `CC(C)(C)CC[C@H](NC(=O)[C@H](Cc1cccnc1)NC(=O)[C@H](Cc1ccc(O)cc1)NC(=O)[C@@H]1CCCN1)C(=O)O` [Example 6, (S)-2-((S)-2-((S)-3-(4-Hydroxyphenyl)-2-((S)-pyrrolidine-2-carboxamido)propan amido)-3-(pyridin-3-yl)propanamido)-5,5-dimethylhexanoic acid] (HELM PEPTIDE1{P.Y.[O=C([C@H](Cc1cccnc1)N[*:1])[*:2]].[CC(C)(C)CC[C@H](N[*:1])C(=O)O]}$$$$V2.0), the IC50 was 0.09 µM.
`Cn1cnc(C[C@H](NC(=O)[C@H](Cc2ccc(O)cc2)NC(=O)[C@@H]2CCCN2)C(=O)N[C@@H](CCC(C)(C)C)C(=O)O)c1` [Example 7, (S)-2-((S)-2-((S)-3-(4-Hydroxyphenyl)-2-((S)-pyrrolidine-2-carboxamido)propan amido)-3-(1-methyl-1H-imidazol-4-yl)propanamido)-5,5-dimethylhexanoic acid] (HELM PEPTIDE1{P.Y.[Cn1cnc(C[C@H](N[*:1])C(=O)[*:2])c1].[CC(C)(C)CC[C@H](N[*:1])C(=O)O]}$$$$V2.0) gave an IC50 of 0.37 µM.
`CC(C)(C)CC[C@H](NC(=O)[C@H](Cc1ccncc1)NC(=O)[C@H](Cc1ccc(O)cc1)NC(=O)[C@@H]1CCCN1)C(=O)O` [Example 8, (S)-2-((S)-2-((S)-3-(4-Hydroxyphenyl)-2-((S)-pyrrolidine-2-carboxamido)propan amido)-3-(pyridin-4-yl)propanamido)-5,5-dimethylhexanoic acid] (HELM PEPTIDE1{P.Y.[O=C([C@H](Cc1ccncc1)N[*:1])[*:2]].[CC(C)(C)CC[C@H](N[*:1])C(=O)O]}$$$$V2.0) gave an IC50 of 0.2 µM.
`CC(C)(C)CC[C@H](NC(=O)[C@H](Cc1ccsc1)NC(=O)[C@H](Cc1ccc(O)cc1)NC(=O)[C@@H]1CCCN1)C(=O)O` [Example 9, (S)-2-((S)-2-((S)-3-(4-Hydroxyphenyl)-2-((S)-pyrrolidine-2-carboxamido)propan amido)-3-(thiophen-3-yl)propanamido)-5,5-dimethylhexanoic acid] (HELM PEPTIDE1{P.Y.[O=C([C@H](Cc1ccsc1)N[*:1])[*:2]].[CC(C)(C)CC[C@H](N[*:1])C(=O)O]}$$$$V2.0) was tested, and the IC50 was 0.14 µM.
Work on `CC(C)(C)CC[C@H](NC(=O)[C@H](Cc1cscn1)NC(=O)[C@H](CC(N)=O)NC(=O)[C@@H]1CCCN1)C(=O)O` [Example 10, (S)-2-((S)-2-((S)-4-Amino-4-oxo-2-((S)-pyrrolidine-2-carboxamido)butan-amido)-3-(thiazol-4-yl)propanamido)-5,5-dimethylhexanoic acid] (HELM PEPTIDE1{P.N.[O=C([C@H](Cc1cscn1)N[*:1])[*:2]].[CC(C)(C)CC[C@H](N[*:1])C(=O)O]}$$$$V2.0) yielded an IC50 of 0.09 µM.
`CC(C)(C)CC[C@H](NC(=O)[C@H](Cc1cscn1)NC(=O)[C@H](CCC(N)=O)NC(=O)[C@@H]1CCCN1)C(=O)O` [Example 11, (S)-2-((S)-2-((S)-5-Amino-5-oxo-2-((S)-pyrrolidine-2-carboxamido)pentan amido)-3-(thiazol-4-yl)propanamido)-5,5-dimethylhexanoic acid] (HELM PEPTIDE1{P.Q.[O=C([C@H](Cc1cscn1)N[*:1])[*:2]].[CC(C)(C)CC[C@H](N[*:1])C(=O)O]}$$$$V2.0) gave an IC50 of 0.06 µM.
Work on `CC(C)(C)CC[C@H](NC(=O)[C@H](Cc1cscn1)NC(=O)[C@H](Cc1ccc(O)cc1)NC(=O)[C@@H]1CCCN1)C(=O)O` [Example 12, (S)-2-((S)-2-((S)-3-(4-Hydroxyphenyl)-2-((S)-pyrrolidine-2-carboxamido)propan amido)-3-(thiazol-4-yl)propanamido)-5,5-dimethylhexanoic acid] (HELM PEPTIDE1{P.Y.[O=C([C@H](Cc1cscn1)N[*:1])[*:2]].[CC(C)(C)CC[C@H](N[*:1])C(=O)O]}$$$$V2.0) yielded an IC50 of 0.07 µM.
Molecule `CC(C)(C)CC[C@H](NC(=O)[C@H](CN1CCOCC1)NC(=O)[C@H](Cc1ccc(O)cc1)NC(=O)[C@@H]1CCCN1)C(=O)O` [Example 13, (S)-2-((S)-2-((S)-3-(4-Hydroxyphenyl)-2-((S)-pyrrolidine-2-carboxamido)propan amido)-3-morpholinopropan-amido)-5,5-dimethylhexanoic acid] (HELM PEPTIDE1{P.Y.[O=C([C@H](CN1CCOCC1)N[*:1])[*:2]].[CC(C)(C)CC[C@H](N[*:1])C(=O)O]}$$$$V2.0) has an IC50 of 0.16 µM.
With `CC(C)(C)CC[C@H](NC(=O)[C@H](Cc1c[nH]c2ccccc12)NC(=O)[C@H](Cc1ccc(O)cc1)NC(=O)[C@@H]1CCCN1)C(=O)O` [Example 14, (S)-2-((S)-2-((S)-3-(4-Hydroxyphenyl)-2-((S)-pyrrolidine-2-carboxamido)propan amido)-3-(1H-indol-3-yl)propanamido)-5,5-dimethylhexanoic acid] (HELM PEPTIDE1{P.Y.W.[CC(C)(C)CC[C@H](N[*:1])C(=O)O]}$$$$V2.0) the IC50 was 0.06 µM.
Work on `CC[C@H](C)[C@H](NC(=O)CNC(=O)[C@@H]1CCCN1)C(=O)N[C@@H](CCC(C)(C)C)C(=O)O` [Example 16, (2S)-5,5-Dimethyl-2-((3S)-3-methyl-2-(2-((S)-pyrrolidine-2-carboxamido)acetamido)pentanamido) hexanoic acid] (HELM PEPTIDE1{P.G.I.[CC(C)(C)CC[C@H](N[*:1])C(=O)O]}$$$$V2.0) yielded an IC50 of 0.08 µM.
`CC[C@H](C)[C@H](NC(=O)[C@H](C)NC(=O)[C@@H]1CCCN1)C(=O)N[C@@H](CCC(C)(C)C)C(=O)O` [Example 17, (2S)-5,5-Dimethyl-2-((3S)-3-methyl-2-((S)-2-((S)-pyrrolidine-2-carboxamido)propan amido)pentanamido) hexanoic acid] (HELM PEPTIDE1{P.A.I.[CC(C)(C)CC[C@H](N[*:1])C(=O)O]}$$$$V2.0) was tested, and the IC50 was 0.07 µM.
`CC[C@H](C)[C@H](NC(=O)[C@H](Cc1ccc(O)cc1)NC(=O)[C@H]1CNCCN1)C(=O)N[C@@H](CCC(C)(C)C)C(=O)O` [Example 18, (S)-2-((2S,3S)-2-((S)-3-(4-Hydroxyphenyl)-2-((R)-piperazine-2-carboxamido)propan amido)-3-methylpentanamido)-5,5-dimethylhexanoic acid] (HELM PEPTIDE1{[O=C([C@H]1CNCCN1)[*:2]].Y.I.[CC(C)(C)CC[C@H](N[*:1])C(=O)O]}$$$$V2.0) gave an IC50 of 0.11 µM.

Reference: patent publication US20240294569A1, “MODULATORS OF SORTILIN ACTIVITY” (Insusense ApS, priority 2021, published 2024)
